The record followed here is article PMC8552062, “Contributions of UDP-Glucuronosyltransferases to Human Hepatic and Intestinal Metabolism of Ticagrelor and Inhibition of UGTs and Cytochrome P450 Enzymes by Ticagrelor and its Glucuronidated Metabolite” (Frontiers in Pharmacology, 2021).

Holding throughout (assay type): in vitro ADME
Design in all cases: tissue XenoTech LLC; host or cells: pooled human liver microsomes

One data set has as its target T1, UGT2B7 (Homo sapiens, UniProt P16662).
T1 sequence (P16662 24-529): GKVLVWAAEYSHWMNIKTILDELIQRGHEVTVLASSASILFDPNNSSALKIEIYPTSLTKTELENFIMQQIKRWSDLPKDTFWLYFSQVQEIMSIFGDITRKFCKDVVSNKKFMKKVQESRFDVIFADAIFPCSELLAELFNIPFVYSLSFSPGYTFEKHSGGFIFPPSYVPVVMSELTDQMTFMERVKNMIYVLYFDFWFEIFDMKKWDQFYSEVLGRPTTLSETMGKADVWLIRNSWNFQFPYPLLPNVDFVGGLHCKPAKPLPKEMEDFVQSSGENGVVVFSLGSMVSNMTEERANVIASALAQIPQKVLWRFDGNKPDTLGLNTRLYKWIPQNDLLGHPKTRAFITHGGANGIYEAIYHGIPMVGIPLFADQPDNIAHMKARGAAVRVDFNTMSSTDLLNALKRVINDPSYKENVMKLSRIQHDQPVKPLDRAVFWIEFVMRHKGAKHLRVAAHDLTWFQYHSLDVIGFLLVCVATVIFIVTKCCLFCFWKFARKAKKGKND
The data set can be described thus: UGT2B7 inhibition in HLM (3′-azide-3′-deoxythymidine glucuronidation). To be noted: for IC50: UGT2B7, 3′-azide-3′-deoxythymidine β-D-glucuronide formation in HLM; for inhibition at 100 µM: human, human liver microsomes (HLM), probe 3′-azide-3′-deoxythymidine, HLM, 100 μM test compound. How it is done: (§1) To assess drug-drug interactions (DDIs) potential caused by ticagrelor and ticagrelor-O-Glu through the inhibition of the major human UGTs enzymes, selective UGT probe substrates were co-incubated with ticagrelor or ticagrelor-O-Glu in HLM. The formation of metabolites, SN-38 glucuronide, chenodeoxycholic acid 24-acyl-β-D-glucuronide, trifluoperazine N-glucuronide, N-Acetyl serotonin glucuronide, mycophenolic acid glucuronide and 3′-azide-3′-deoxythymidine β-D-glucuronide, which could reflect the enzyme activities of UGT1A1, UGT1A3, UGT1A4, UGT1A6, UGT1A9 and UGT2B7, respectively, were quantified using LC-MS/MS. Three different concentrations of ticagrelor or ticagrelor-O-Glu (1, 10 and 100 μM) were added to the incubation system in the presence of selective UGT probe substrates (SN-38, chenodeoxycholic acid, trifluoperazine, N-Acetyl serotonin, mycophenolic acid and 3′-azide-3′-deoxythymidine), respectively. The assays were performed as described above. The control was treated with a vehicle solvent only. A triple determination was performed.
(§2) The percent inhibition relative to the control was calculated to indicate the UGTs or CYPs inhibition. For inhibition exceeding 50% of the control activity, nonlinear regression analysis was used to estimate the IC50 values using the GraphPad Prism 6 (GraphPad Software Inc., CA, United States).

Another data set concerns the target T2, UGT1A3 (Homo sapiens, UniProt P35503).
T2 sequence (P35503 29-534): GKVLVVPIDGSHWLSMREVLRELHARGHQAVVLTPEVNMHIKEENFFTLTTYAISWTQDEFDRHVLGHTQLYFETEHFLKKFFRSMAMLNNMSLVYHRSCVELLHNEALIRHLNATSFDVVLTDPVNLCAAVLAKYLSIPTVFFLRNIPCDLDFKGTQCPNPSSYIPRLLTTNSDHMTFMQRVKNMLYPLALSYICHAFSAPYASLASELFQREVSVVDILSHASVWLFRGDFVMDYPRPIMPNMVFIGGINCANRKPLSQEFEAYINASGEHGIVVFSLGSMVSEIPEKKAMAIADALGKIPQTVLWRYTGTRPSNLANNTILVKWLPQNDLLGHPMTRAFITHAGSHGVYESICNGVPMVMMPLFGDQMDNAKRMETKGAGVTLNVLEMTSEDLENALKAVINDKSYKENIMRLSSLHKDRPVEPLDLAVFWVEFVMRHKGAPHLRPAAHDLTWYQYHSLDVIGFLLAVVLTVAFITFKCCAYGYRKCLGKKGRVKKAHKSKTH
The data set is described as follows: UGT1A3 inhibition in HLM (chenodeoxycholic acid glucuronidation). To be noted: for IC50: UGT1A3, chenodeoxycholic acid 24-acyl-β-D-glucuronide formation in HLM. How it is done:
as §1, §2

The target in another data set is T3, UGT1A4 (Homo sapiens, UniProt P22310).
T3 sequence (P22310 29-534): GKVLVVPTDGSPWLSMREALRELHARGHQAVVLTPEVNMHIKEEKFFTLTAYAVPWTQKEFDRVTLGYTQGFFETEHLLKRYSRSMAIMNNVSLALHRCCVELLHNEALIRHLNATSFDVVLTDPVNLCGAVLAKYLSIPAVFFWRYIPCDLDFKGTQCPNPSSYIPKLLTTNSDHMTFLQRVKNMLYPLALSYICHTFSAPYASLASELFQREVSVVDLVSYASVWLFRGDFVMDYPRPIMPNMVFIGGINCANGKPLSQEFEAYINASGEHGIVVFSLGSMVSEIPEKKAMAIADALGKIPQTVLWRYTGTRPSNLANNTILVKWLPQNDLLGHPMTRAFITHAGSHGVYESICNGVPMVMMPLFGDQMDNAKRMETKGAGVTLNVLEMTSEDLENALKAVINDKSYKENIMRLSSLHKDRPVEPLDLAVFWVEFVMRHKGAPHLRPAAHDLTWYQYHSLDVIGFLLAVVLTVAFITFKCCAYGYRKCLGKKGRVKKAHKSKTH
The data set can be described thus: UGT1A4 inhibition in HLM (trifluoperazine N-glucuronidation). To be noted: for inhibitory effect on UGT1A4: HLM, 1, 10 and 100 μM; for IC50: UGT1A4, trifluoperazine N-glucuronide formation in HLM. How it is done:
as §1, §2

Another data set addresses T4, UGT1A9 (Homo sapiens, UniProt O60656).
T4 sequence (O60656 26-530): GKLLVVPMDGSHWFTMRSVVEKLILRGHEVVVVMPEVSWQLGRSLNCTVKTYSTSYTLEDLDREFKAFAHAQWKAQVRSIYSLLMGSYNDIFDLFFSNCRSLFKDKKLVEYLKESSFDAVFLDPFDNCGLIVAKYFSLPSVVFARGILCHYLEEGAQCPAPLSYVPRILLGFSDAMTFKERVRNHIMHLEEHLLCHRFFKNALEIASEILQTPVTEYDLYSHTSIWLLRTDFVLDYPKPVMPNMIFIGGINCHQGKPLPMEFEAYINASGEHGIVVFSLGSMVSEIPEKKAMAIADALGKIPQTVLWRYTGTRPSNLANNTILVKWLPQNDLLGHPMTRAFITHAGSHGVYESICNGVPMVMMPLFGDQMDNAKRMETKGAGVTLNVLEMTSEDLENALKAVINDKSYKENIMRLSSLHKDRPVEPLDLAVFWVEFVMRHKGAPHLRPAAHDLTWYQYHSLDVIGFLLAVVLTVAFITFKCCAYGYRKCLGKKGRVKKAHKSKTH
The data set is described as follows: UGT1A9 inhibition in HLM (mycophenolic acid glucuronidation). To be noted: for IC50: UGT1A9, mycophenolic acid glucuronide formation in HLM; for inhibition at 100 µM: human, human liver microsomes (HLM), probe mycophenolic acid, HLM, 100 μM test compound. How it is done:
as §1, §2
On the technique in general: Liver microsomes are vesicles of endoplasmic reticulum, rich in cytochrome P450 enzymes.

One may read the IC50 as the concentration that gives 50% inhibition. Low values mean greater potency, high ones weaker potency. One may read the inhibition as the relative decrease from the control value, in per cent. Low values mean a response near the control, high ones a response far below the control. For `CCCSc1nc(N[C@@H]2C[C@H]2c2ccc(F)c(F)c2)c2nnn([C@@H]3C[C@H](OCCO[C@@H]4O[C@H](C(=O)O)[C@@H](O)[C@H](O)[C@H]4O)[C@@H](O)[C@H]3O)c2n1` [Ticagrelor-O-Glu, ticagrelor-O-glucuronide], the IC50 at UGT2B7 is greater than 100 µM; against UGT1A3, greater than 100 µM; against UGT1A4, greater than 100 µM; at UGT1A9 it was roughly 100 µM. In addition, the inhibition at 100 µM amounted to 30.7% against UGT2B7 and 61.4% against UGT1A9. Moreover, the “inhibitory effect on UGT1A3” value on UGT1A3 (HLM, concentration up to 100 μM) is listed as “no significant inhibitory effects”. In addition, the “inhibitory effect on UGT1A4” value against UGT1A4 is recorded as “no significant inhibitory effects”.

With `CCCSc1nc(N[C@@H]2C[C@H]2c2ccc(F)c(F)c2)c2nnn([C@@H]3C[C@H](OCCO)[C@@H](O)[C@H]3O)c2n1` [Ticagrelor], the IC50 on UGT2B7, against UGT1A3, against UGT1A4 and on UGT1A9 was greater than 100 µM in each case. For the same compound, the inhibition at 100 µM against UGT2B7 came to 39%; on UGT1A3 (human, human liver microsomes (HLM), probe chenodeoxycholic acid, HLM, 100 μM test compound), 24.5%; against UGT1A9 it was 13.3%. The “inhibitory effect on UGT1A4” value against UGT1A4 is listed as “No significant inhibitory effect”.
